The values that follow come from patent US20220023419A1, “INHIBITING INFLAMMATION” (THE COUNCIL OF THE QUEENSLAND INSTITUTE OF MEDICAL RESEARCH, priority 2018, published 2022).

For this assay, the system named is EpCAM+ epithelial cells in intestinal organoids. The assay can be described thus: Intestinal organoids from small intestine cultured with IFNγ, MHC class-II expression. It counts as cell-based, mouse. The settings on record: organoids from B6.MHC class-II-GFP or B6.WT mice cultured with IFNγ. An excerpt: High levels of IFN-γ are secreted by both ILC1 and by conventional T cells in the small intestine. The mechanisms controlling MHC class-II expression by IEC, focusing on interferon (IFN) γ signalling were delineated, since this cytokine is known to potently induce MHC class-II expression. […] To understand the potential sources of IFNγ driving the expression of MHC class II, Rag^−/− common-γ-chain^−/− which lack innate lymphocyte populations, and Rag^−/− mice that lack only conventional TCR-rearranged T cells, were analyzed. […] After TBI-induced inflammation, conventional T cells were required for the upregulation of MHC class II in the ileum. […] In contrast, TBI induced IFN-γ secretion from conventional T cells (CD4^+ Tcon, CD8^+ Tcon) but not innate lymphocyte populations (not shown). […] Thus, constitutive MHC class-II expression on IEC in the ileum causes local T cell activation and IFNγ secretion, consistent with the induction of a local cytokine feed-forward cascade that amplifies MHC class-II expression on IEC. In order to confirm that the induction of MHC class-II expression by IEC was a direct effect of IFNγ, intestinal organoids were cultured from the small intestine of B6.MHC class-II-GFP or B6.WT mice with IFNγ.

As for “IFNγ: cytokine added to intestinal organoid cultures; known to potently induce MHC class-II expression”, the “MHC class-II expression by EpCAM+ epithelial cells in organoids” value is “did so rapidly in the presence of IFNγ”.
